Assay results published in patent publication US8188059B2, “Compounds and methods for modulating expression of GCGR” (Isis Pharmaceuticals, Inc., priority 2006, dated 2012).
Strand notation (5' to 3'): a small letter for the sugar, then the base; units joined by * are phosphorothioate-linked, units joined directly phosphodiester-linked; [ ] holds rarer units or linkages, { } end groups; capitals alone tell only the bases. e = 2'-O-(2-methoxyethyl) (MOE); [5mC] = 5-methylcytosine; d = 2'-deoxy (DNA)

Tests used:
rat DGAT2 mRNA [1] = experiment: Dose-dependent inhibition of DGAT2 in A10 cells, 0.62-150 nM (Example 22, Table 83); type: cell-based
Method: Additional short antisense compounds targeted to DGAT2 mRNA were tested in vitro. A10 cells were prepared as described above and treated with 0.62, 1.85, 5.56, 16.67, 50.0, and 150.0 nM short antisense compounds to determine if DGAT2 inhibition occurs in a dose-dependent manner. DGAT2 mRNA was measured using quantitative real-time PCR, as described herein. […] Results are presented as percent inhibition of rat DGAT2, relative to untreated control cells.

DGAT2 mRNA = experiment: Antisense inhibition of DGAT2 in A10 cells at 75 nM (Example 22, Table 81); type: cell-based, rat; details: approximately 24 hours
Method: Short antisense compounds targeted to a DGAT2 nucleic acid were tested for their effects on DGAT2 mRNA in vitro. Cultured A10 cells in a 96-well plate were treated with 75 nM of short antisense compound. After a treatment period of approximately 24 hours, RNA was isolated from the cells and DGAT2 mRNA levels were measured by quantitative real-time PCR, as described herein. DGAT2 mRNA levels were adjusted according to total RNA content as measured by RIBOGREEN®. […]

rat DGAT2 mRNA [2] = experiment: Dose-dependent inhibition of DGAT2 in A10 cells, 6.25-200 nM (Example 22, Table 82); type: cell-based
Method: Additional short antisense compounds targeted to DGAT2 mRNA were tested in vitro in a dose-response experiment. A10 cells were prepared as described above and treated with 6.25, 12.5, 25.0, 50.0, 100.0, and 200.0 nM short antisense compounds to determine if DGAT2 inhibition occurs in a dose-dependent manner. […] Results are presented as percent inhibition, relative to untreated control cells.

rat SGLT2 mRNA = experiment: Rat SGLT2 mRNA levels in kidney, 1-10-1 and 1-10-2 MOE gapmers, Sprague-Dawley rats (Example 13, Table 63); type: in vivo
Excerpt: 1-10-1 and 1-10-2 MOE gapmer antisense compounds, provided in Table 62, were designed to target different regions of the mouse or rat SGLT2 RNA. All short antisense compounds in Table 62 are chimeric oligonucleotides (“gapmers”) either 12 or 13 nucleotides in length, composed of a central “gap” segment consisting of ten 2′-deoxynucleotides, which are flanked on the 5′ side by a one-nucleoside “wing” and on the 3′ side by a two or one-nucleotide “wing”. […] All cytidine residues are 5-methylcytidines.
The short antisense compounds were analyzed for their effect on rat SGLT2 mRNA levels. Data are ranges taken from three experiments in which Male Sprague-Dawley rats (170-200 g) were dosed twice per week for three weeks with 450, 150 or 50 nmol/kg of either a 1-10-1 or 1-10-2 MOE gapmer given by intraperitoneal injection. Rats were sacrificed 48 hours following last administration and evaluated for SGLT2 mRNA levels in kidney. Target levels were determined by RT, real-time PCR as described by other examples herein. PCR results were normalized to an internal ISIS control.

[3] = 50 nmol/kg i.p. twice per week for three weeks
[4] = 150 nmol/kg i.p. twice per week for three weeks
[5] = 450 nmol/kg i.p. twice per week for three weeks

Row | Substance | percent inhibition of rat DGAT2 (rat DGAT2 mRNA [1]; 0.62 nM) | percent inhibition of rat DGAT2 (rat DGAT2 mRNA [1]; 1.85 nM) | percent inhibition of rat DGAT2 (rat DGAT2 mRNA [1]; 5.56 nM) | percent inhibition of rat DGAT2 (rat DGAT2 mRNA [1]; 16.67 nM) | percent inhibition of rat DGAT2 (rat DGAT2 mRNA [1]; 50 nM) | percent inhibition of rat DGAT2 (rat DGAT2 mRNA [1]; 150 nM) | DGAT2 mRNA, % Control (DGAT2 mRNA) [%] | percent inhibition of DGAT2 (rat DGAT2 mRNA [2]; 6.25 nM) | percent inhibition of DGAT2 (rat DGAT2 mRNA [2]; 12.5 nM) | percent inhibition of DGAT2 (rat DGAT2 mRNA [2]; 50.0 nM) | percent inhibition of DGAT2 (rat DGAT2 mRNA [2]; 100.0 nM) | percent inhibition of DGAT2 (rat DGAT2 mRNA [2]; 200.0 nM) | percent inhibition of DGAT2 (rat DGAT2 mRNA [2]; […]) | % change in SGLT2 expression relative to saline (rat SGLT2 mRNA; [3]) [%] | % change in SGLT2 expression relative to saline (rat SGLT2 mRNA; [4]) [%] | % change in SGLT2 expression relative to saline (rat SGLT2 mRNA; [5]) [%]
1 | 372602 (antisense e[5mC]*e[5mC]*dA*dG*dG*d[5mC]*dA*dT*dG*dG*dA*dG*e[5mC]*eT) [compound 372602] | 0 | 0 | 10 | 0 | 19 | 51 | 39 | 0 | 0 | 18 | 47 | 76 | 0 | – | – | –
2 | ISIS 382677: SGLT2; GGCATGAGCTTCA 1-10-2 MOE (antisense eG*dG*d[5mC]*dA*dT*dG*dA*dG*d[5mC]*dT*dT*e[5mC]*eA) | – | – | – | – | – | – | – | – | – | – | – | – | – | −40 | −60 | −75
3 | 372530 (antisense eT*e[5mC]*eG*dG*d[5mC]*d[5mC]*d[5mC]*d[5mC]*dA*dG*dG*dA*dG*e[5mC]*e[5mC]*e[5mC]) [compound 372530] | 0 | 2 | 0 | 10 | 38 | 78 | 35 | – | – | – | – | – | – | – | – | –
4 | 372578 (antisense eT*eG*dT*dG*dT*d[5mC]*dT*dT*d[5mC]*dA*d[5mC]*d[5mC]*eA*eG) [compound 372578] | 0 | 0 | 0 | 2 | 7 | 42 | 59 | – | – | – | – | – | – | – | – | –
5 | 372500 (antisense eG*eT*eG*dT*dG*dT*d[5mC]*dT*dT*d[5mC]*dA*d[5mC]*d[5mC]*eA*eG*e[5mC]) [compound 372500] | 0 | 0 | 0 | 18 | 64 | 88 | 16 | – | – | – | – | – | – | – | – | –
6 | 372586 (antisense eG*eT*dT*d[5mC]*d[5mC]*dT*dG*dG*dT*dG*dG*dT*e[5mC]*eA) [compound 372586] | 0 | 0 | 0 | 0 | 7 | 55 | 40 | 19 | 0 | 22 | 45 | 77 | 7 | – | – | –
7 | 372618 (antisense eG*eT*dG*dG*dT*dA*d[5mC]*dA*dG*dG*dT*d[5mC]*eG*eA) [compound 372618] | 0 | 0 | 0 | 0 | 30 | 60 | 29 | 0 | 5 | 27 | 65 | 80 | 0 | – | – | –
8 | 372501 (antisense eT*eT*eG*dT*dG*dT*dG*dT*d[5mC]*dT*dT*d[5mC]*dA*e[5mC]*e[5mC]*eA) [compound 372501] | 1 | 5 | 10 | 11 | 25 | 68 | 28 | – | – | – | – | – | – | – | – | –
9 | 372580 (antisense eG*eG*dT*dT*dG*dT*dG*dT*dG*dT*d[5mC]*dT*eT*e[5mC]) [compound 372580] | 0 | 5 | 5 | 3 | 16 | 42 | 48 | – | – | – | – | – | – | – | – | –
10 | 372524 (antisense eG*e[5mC]*e[5mC]*dA*dG*dG*d[5mC]*dA*dT*dG*dG*dA*dG*e[5mC]*eT*e[5mC]) [compound 372524] | 7 | 0 | 5 | 30 | 68 | 91 | 21 | – | – | – | – | – | – | – | – | –
11 | 372563 (antisense eA*eG*d[5mC]*d[5mC]*dA*dG*dG*dT*dG*dA*d[5mC]*dA*eG*eA) [compound 372563] | 0 | 0 | 0 | 1 | 4 | 46 | 48 | – | – | – | – | – | – | – | – | –
12 | 372516 (antisense eT*eA*e[5mC]*dA*dG*dA*dA*dG*dG*d[5mC]*dA*d[5mC]*d[5mC]*e[5mC]*eA*eG) [compound 372516] | 1 | 10 | 0 | 4 | 35 | 81 | 27 | – | – | – | – | – | – | – | – | –
13 | ISIS 382675 (antisense eT*dA*dG*d[5mC]*d[5mC]*dA*d[5mC]*d[5mC]*dA*dA*d[5mC]*eT*eG) | – | – | – | – | – | – | – | – | – | – | – | – | – | −50 | −65 | −80
